The source of these data is the supplement of paper PMC10307832.

What all share (assay): relative viability (nuclei count vs DMSO), 5 days (fraction); higher = more cells survive
Compound in the experiment “Metformin + Pictilisib”: CN(C)C(=N)NC(=N)N [Metformin] + CS(=O)(=O)N1CCN(Cc2cc3nc(-c4cccc5[nH]ncc45)nc(N4CCOCC4)c3s2)CC1 [Pictilisib] (partner 1 µM)
The method in brief: (§1)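 After 5 days of treatment, lung cancer cells in 1536-well plates were fixed and stained in a single step (final 0.05% Triton X-100, 1% formaldehyde, 1 ug/ml Hoechst) and their nuclei counted on 4× images. Treatment had been applied by pin tool the day after seeding as one drug alone or as a fixed anchor-drug dose with five library-drug doses (not always all listed) in √10 steps. Relative viability is the nuclei count of treated wells divided by that of vehicle wells, and values are medians of duplicate plates.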

Compound in the experiment “Apatinib + Crizotinib”: N#CC1(c2ccc(NC(=O)c3cccnc3NCc3ccncc3)cc2)CCCC1 [Apatinib] + C[C@@H](Oc1cc(-c2cnn(C3CCNCC3)c2)cnc1N)c1c(Cl)ccc(F)c1Cl [Crizotinib] (partner 1 µM)
In a few lines:
as §1

Compound in the experiment “Apatinib + Pictilisib”: N#CC1(c2ccc(NC(=O)c3cccnc3NCc3ccncc3)cc2)CCCC1 [Apatinib] + CS(=O)(=O)N1CCN(Cc2cc3nc(-c4cccc5[nH]ncc45)nc(N4CCOCC4)c3s2)CC1 [Pictilisib] (partner 1 µM)
The method in brief:
as §1

Compound in the experiment “Metformin + Vorinostat”: CN(C)C(=N)NC(=N)N [Metformin] + O=C(CCCCCCC(=O)Nc1ccccc1)NO [Vorinostat] (partner 1 µM)
The method in brief:
as §1

For NCI-H460, the relative viability with Metformin + Pictilisib (first compound 31.62 µM) came to 0.41; in the experiment with Metformin + Pictilisib (first compound 100 µM) it was 0.327; with Metformin + Pictilisib (first compound 316.23 µM), 0.337; in the experiment with Metformin + Pictilisib (first compound 1000 µM) it was 0.401; with Apatinib + Crizotinib (first compound 0.08 µM), 1.04; with Apatinib + Crizotinib (first compound 0.253 µM) it was 0.907. In addition, the relative viability with Apatinib + Crizotinib (first compound 0.8 µM) came to 0.727; with Apatinib + Crizotinib (first compound 2.53 µM) it was 0.848; with Apatinib + Crizotinib (first compound 8 µM), 0.857; in the experiment with Apatinib + Pictilisib (first compound 0.08 µM) it was 0.335; with Apatinib + Pictilisib (first compound 0.253 µM), 0.374; with Apatinib + Pictilisib (first compound 0.8 µM) it was 0.452. Further, the relative viability in the experiment with Apatinib + Pictilisib (first compound 2.53 µM) came to 0.391; with Apatinib + Pictilisib (first compound 8 µM) it was 0.458; with Metformin + Vorinostat (first compound 31.62 µM) it was 0.667; with Metformin + Vorinostat (first compound 100 µM), 0.542; in the experiment with Metformin + Vorinostat (first compound 316.23 µM), 0.581; in the experiment with Metformin + Vorinostat (first compound 1000 µM) it was 0.659.
